Laboratory results published in ChEMBL document CHEMBL1146225, “[1,2,3]Triazolo[4,5-h]quinolones. A new class of potent antitubercular agents against multidrug resistant Mycobacterium tuberculosis strains” (Bioorg Med Chem Lett, 2007).

What was measured:
[1] = system: Mycobacterium tuberculosis; assay: Antitubercular activity against Mycobacterium tuberculosis SS2; format: functional
[2] = system: Mycobacterium tuberculosis; assay: Antitubercular activity against Mycobacterium tuberculosis SS11; format: functional
[3] = system: Mycobacterium tuberculosis; assay: Antitubercular activity against Mycobacterium tuberculosis SS5; format: functional
[4] = system: Mycobacterium tuberculosis; assay: Antitubercular activity against Mycobacterium tuberculosis SS6; format: functional
[5] = system: Mycobacterium tuberculosis; assay: Antitubercular activity against Mycobacterium tuberculosis SS8; format: functional
[6] = system: Mycobacterium tuberculosis; assay: Antitubercular activity against Mycobacterium tuberculosis SS4; format: functional
[7] = system: Mycobacterium tuberculosis; assay: Antitubercular activity against Mycobacterium tuberculosis H37Rv; format: functional
[8] = system: Mycobacterium tuberculosis; assay: Antitubercular activity against Mycobacterium tuberculosis SS3; format: functional
[9] = system: Mycobacterium tuberculosis; assay: Antitubercular activity against Mycobacterium tuberculosis SS1; format: functional
[10] = system: Mycobacterium tuberculosis; assay: Antitubercular activity against Mycobacterium tuberculosis SS10; format: functional
[11] = system: Mycobacterium tuberculosis; assay: Antitubercular activity against Mycobacterium tuberculosis SS9; format: functional
[12] = system: Mycobacterium tuberculosis; assay: Antitubercular activity against Mycobacterium tuberculosis SS7; format: functional
[13] = system: Mycobacterium tuberculosis; assay: Effect on mycobacterial growth of Mycobacterium tuberculosis H37Rv infected in human J774A1 cells at 0.5 ug/mL after 7 days; format: functional, J774.A1
[14] = system: Mycobacterium tuberculosis; assay: Effect on mycobacterial growth of Mycobacterium tuberculosis H37Rv infected in human J774A1 cells at 0.25 ug/mL after 7 days; format: functional, J774.A1
[15] = Cytotoxicity against human J774A1; format: cell-based, J774.A1; conditions: J774A1 cells
[16] = Cytotoxicity against human Hep2 cells; format: cell-based, HEp-2

CCOC(=O)c1cn(Cc2ccc(Br)cc2)c2c(ccc3c2nnn3C)c1=O
> 32 µg/mL: MIC90 [1] | MIC90 [2] | MIC90 [3] | MIC90 [4] | MIC90 [5] | MIC90 [6] | MIC90 [7] | MIC90 [8] | MIC90 [9] | MIC90 [10] | MIC90 [11] | MIC90 [12]

Cn1cc(C(=O)O)c(=O)c2ccc3c(nnn3C)c21
2 µg/mL: MIC90 [6]
0.5 µg/mL: MIC90 [1] | MIC90 [2] | MIC90 [3] | MIC90 [4] | MIC90 [5] | MIC90 [7] | MIC90 [8] | MIC90 [9] | MIC90 [10] | MIC90 [11] | MIC90 [12]

CCOC(=O)c1cn(CCc2ccccc2)c2c(ccc3c2nnn3C)c1=O
> 32 µg/mL: MIC90 [1] | MIC90 [2] | MIC90 [3] | MIC90 [4] | MIC90 [5] | MIC90 [6] | MIC90 [7] | MIC90 [8] | MIC90 [9] | MIC90 [10] | MIC90 [11] | MIC90 [12]

CCOC(=O)c1cn(C)c2c(ccc3c2nnn3C)c1=O
0.5 µg/mL: MIC90 [1] | MIC90 [2] | MIC90 [3] | MIC90 [4] | MIC90 [5] | MIC90 [7] | MIC90 [8] | MIC90 [9] | MIC90 [10] | MIC90 [11] | MIC90 [12]
2 µg/mL: MIC90 [6]

CCCn1cc(C(=O)OCC)c(=O)c2ccc3c(nnn3C)c21
> 32 µg/mL: MIC90 [1] | MIC90 [2] | MIC90 [3] | MIC90 [4] | MIC90 [5] | MIC90 [6] | MIC90 [7] | MIC90 [8] | MIC90 [9] | MIC90 [10] | MIC90 [11] | MIC90 [12]

CCCCn1cc(C(=O)OCC)c(=O)c2ccc3c(nnn3C)c21
8000 µL⁻¹: CFU [14]
5000 µL⁻¹: CFU [13]
0.5 µg/mL: MIC90 [1] | MIC90 [2] | MIC90 [3] | MIC90 [4] | MIC90 [5] | MIC90 [6] | MIC90 [7] | MIC90 [8] | MIC90 [9] | MIC90 [10] | MIC90 [11] | MIC90 [12]
> 50 µg/mL: CC50 [15] | CC50 [16]

CCCn1cc(C(=O)O)c(=O)c2ccc3c(nnn3C)c21
3.2 µg/mL: MIC90 [3] | MIC90 [6] | MIC90 [12]
1.6 µg/mL: MIC90 [1] | MIC90 [2] | MIC90 [4] | MIC90 [5] | MIC90 [7] | MIC90 [8] | MIC90 [9] | MIC90 [10] | MIC90 [11]

C=CCn1cc(C(=O)O)c(=O)c2ccc3c(nnn3C)c21
> 32 µg/mL: MIC90 [1] | MIC90 [2] | MIC90 [3] | MIC90 [4] | MIC90 [5] | MIC90 [6] | MIC90 [7] | MIC90 [8] | MIC90 [9] | MIC90 [10] | MIC90 [11] | MIC90 [12]

Cc1ccc(Cn2cc(C(=O)O)c(=O)c3ccc4c(nnn4C)c32)cc1
> 32 µg/mL: MIC90 [1] | MIC90 [2] | MIC90 [3] | MIC90 [4] | MIC90 [5] | MIC90 [6] | MIC90 [7] | MIC90 [8] | MIC90 [9] | MIC90 [10] | MIC90 [11] | MIC90 [12]

Cn1nnc2c3c(ccc21)c(=O)c(C(=O)O)cn3CCc1ccccc1
0.8 µg/mL: MIC90 [1] | MIC90 [2] | MIC90 [5] | MIC90 [7] | MIC90 [9] | MIC90 [11]
3.2 µg/mL: MIC90 [3] | MIC90 [4] | MIC90 [6] | MIC90 [8] | MIC90 [10] | MIC90 [12]
